# Measurements taken from ChEMBL document CHEMBL1201862, “PubChem BioAssay data set” (2004).
# The source made the active and inactive calls.
# Tests used:
# [1] = tested on: Streptococcus sp. 'group A'; assay: Streptococcus pyogenes SK(-)GAS viability under kanamycin – luminescence, BacTiterGlo, confirmation, counter-screen for streptokinase expression inhibitor project, dose response (AID 1900); format: functional, organism-based
# Streptococcus = assay: GAS UMAA2166 growth inhibition – luminescence, BacTiterGlo, counter-screen for streptokinase expression inhibitor project, dose response (AID 1915); format: functional, organism-based;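 also: potency for reduction of bacterial viability or growth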
# Streptokinase A = target: T1, Streptokinase A (Streptococcus pyogenes serotype M1, UniProt P10520); assay: viability-normalized secreted streptokinase activity reduction – plasminogen activation absorbance, OD405, dose response (AID 1914); format: functional, Streptococcus pyogenes M1 GAS;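 also: secreted streptokinase activity via plasminogen activation per viability signal from cell pellet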
# T1 sequence (P10520 whole entry): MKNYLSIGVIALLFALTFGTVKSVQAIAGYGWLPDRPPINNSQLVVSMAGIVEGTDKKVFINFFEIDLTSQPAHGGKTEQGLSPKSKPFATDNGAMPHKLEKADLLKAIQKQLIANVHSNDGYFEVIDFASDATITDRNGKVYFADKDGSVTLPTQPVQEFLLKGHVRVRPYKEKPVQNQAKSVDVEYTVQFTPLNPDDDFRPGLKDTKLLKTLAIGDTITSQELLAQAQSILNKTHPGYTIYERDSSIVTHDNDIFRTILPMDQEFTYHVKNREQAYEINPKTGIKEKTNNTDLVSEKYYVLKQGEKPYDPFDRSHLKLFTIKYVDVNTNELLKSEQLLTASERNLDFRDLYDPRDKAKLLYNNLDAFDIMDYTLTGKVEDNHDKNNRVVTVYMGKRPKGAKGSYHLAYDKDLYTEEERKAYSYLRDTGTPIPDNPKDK
# Phospholipase A2 = Phospholipase A2 (Homo sapiens, UniProt P04054); format: functional;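 also: confirmatory dose-response counterscreen on phospholipase A2, testing hits that came from an ultra-high-throughput screen for ATG4B inhibitors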
# [2] = NIH-3T3 fibroblast cytotoxicity, dose response, cytotoxicity control, cell-based, fluorescence, Alamar Blue, secondary assay (AID 2327); format: functional;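 also: NIH-3T3 mouse fibroblasts cultured with fluconazole at 8 µg/mL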
# [3] = fluconazole-exposed Candida albicans growth modulators – fluorescence, retest, confirmation (AID 2467); format: functional, cell-based
# Cysteine protease ATG4B = Cysteine protease ATG4B (Homo sapiens, UniProt Q9Y4P1); format: functional;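 also: Fluorescence-based dose-response confirmation assay measuring inhibition of ATG4B activity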
# [4] = target: T2, Tyrosine-protein phosphatase non-receptor type 7 (Homo sapiens, UniProt P35236); format: functional
# T2 sequence (P35236 whole entry): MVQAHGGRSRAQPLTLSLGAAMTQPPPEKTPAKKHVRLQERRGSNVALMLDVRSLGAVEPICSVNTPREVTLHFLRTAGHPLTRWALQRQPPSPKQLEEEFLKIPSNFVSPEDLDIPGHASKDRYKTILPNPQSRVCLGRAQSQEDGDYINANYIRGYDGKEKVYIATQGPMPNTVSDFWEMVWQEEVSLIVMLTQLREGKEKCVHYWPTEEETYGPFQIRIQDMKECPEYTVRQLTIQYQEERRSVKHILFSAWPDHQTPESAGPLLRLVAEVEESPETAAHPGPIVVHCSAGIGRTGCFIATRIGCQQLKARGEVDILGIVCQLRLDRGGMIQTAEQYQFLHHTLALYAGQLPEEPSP
# [5] = target: T3, Dual specificity protein phosphatase 6 (Rattus norvegicus, UniProt Q64346); format: functional
# T3 sequence (Q64346 whole entry): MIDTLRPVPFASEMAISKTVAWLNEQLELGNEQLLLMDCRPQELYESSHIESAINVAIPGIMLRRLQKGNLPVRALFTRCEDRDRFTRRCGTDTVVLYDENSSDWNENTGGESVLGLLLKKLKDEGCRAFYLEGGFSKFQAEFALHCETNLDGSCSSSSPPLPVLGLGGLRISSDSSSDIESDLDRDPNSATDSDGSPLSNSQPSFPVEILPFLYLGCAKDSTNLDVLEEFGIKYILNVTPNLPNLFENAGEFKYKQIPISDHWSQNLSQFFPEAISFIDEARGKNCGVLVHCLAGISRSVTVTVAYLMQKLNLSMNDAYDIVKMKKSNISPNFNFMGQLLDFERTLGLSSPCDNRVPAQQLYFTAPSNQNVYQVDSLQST
# [6] = target: T3, Dual specificity protein phosphatase 6
# [7] = target: Glyceraldehyde-3-phosphate dehydrogenase (Homo sapiens, UniProt P04406)
# [8] = target: Cell division cycle 7-related protein kinase (Homo sapiens, UniProt O00311); format: functional;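 also: value obtained from a kinome-wide kinase panel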
# [9] = target: Serine/threonine-protein kinase pim-1 (Homo sapiens, UniProt P11309); format: functional
# [10] = target: Mitogen-activated protein kinase kinase kinase kinase 4 (Homo sapiens, UniProt O95819); format: functional
# [11] = target: Interleukin-1 receptor-associated kinase 4 (Homo sapiens, UniProt Q9NWZ3); format: functional
# [12] = target: Homeodomain-interacting protein kinase 2 (Homo sapiens, UniProt Q9H2X6); format: functional;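 also: measured within a kinome-wide kinase profiling panel, HIPK2 being one panel member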
# [13] = target: cAMP-dependent protein kinase catalytic subunit alpha (Homo sapiens, UniProt P17612); format: functional
# [14] = target: Dual specificity protein kinase CLK4 (Homo sapiens, UniProt Q9HAZ1); format: functional
# [15] = target: Glycogen synthase kinase-3 beta (Homo sapiens, UniProt P49841); format: functional;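 also: value comes from a broad kinome profiling panel, with GSK3B as the panel member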
# Keap1/Nrf2 = Keap1/Nrf2 (Homo sapiens, UniProt Q14145); assay: disruptors of Keap1 binding to Nrf2 peptide – biochemical, fluorescence polarization, cherry-picked samples, dose response (AID 588683)
# [16] = target: Protein disulfide-isomerase (Homo sapiens, UniProt P07237); assay: inhibition of PDI-driven insulin aggregation – biochemical, turbidity, absorbance, cherry-picked samples, dose response (AID 602350); format: functional
# [17] = target: UDP-galactopyranose mutase (Mycobacterium tuberculosis, UniProt P9WIQ1); assay: Inhibitors of Mycobacterium tuberculosis UDP-galactopyranose mutase (UGM) enzyme Measured in Biochemical System Using Plate Reader - 2105-02_Inhibitor_Dose_CherryPick_Activity. [Related pubchem assays (depositor defined):AID504439]
# Beta Lactamase = Beta Lactamase (Pseudomonas aeruginosa, UniProt Q932Y6); assay: BLA reporter interference, concentration series – BLA reporter cells, FRET fluorescence, artefact control for TLR9-MyD88 binding inhibitor project, dose response (AID 588341); format: cell-based;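 also: cell based assay in CHO-K1 cells stably expressing beta-lactamase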
# CHO = CHO cell viability loss, potency – luminescence, cytotoxicity control for TLR9-MyD88 binding inhibitor project, dose response (AID 588339); format: functional, cell-based, hamster; conditions: Cricetulus griseus;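 also: CHO cells stably coexpressing TLR9 and MyD88 fusions from primary screen; compound exposure lasted 48 hours before viability readout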
# CHO-K1 = assay: (§1) Counterscreen for antagonists of the orexin 1 receptor (OX1R; HCRTR1): Homogeneous time resolved fluorescence (HTRF)-based cell-based dose response assay to identify antagonists of the parental CHO-K1 cell line. [Related pubchem assays (depositor defined):AID434989, AID435008, AID463079, AID485270, AID492963, AID492964, AID492965, AID493232, AID504699, AID504701]; format: functional; conditions: Cricetulus griseus
# Orexin receptor type 2 [18] = target: T4, Orexin receptor type 2 (Homo sapiens, UniProt O43614); assay: Counterscreen assay for antagonists of the orexin 1 receptor (OX1R; HCRTR1): Fluorescence-based cell-based dose response assay for antagonists of the orexin 2 receptor (OX2R; HCRTR2), run by assay provider.; format: functional
# Orexin receptor type 2 [19] = target: T4, Orexin receptor type 2; assay: Counterscreen assay for antagonists of the orexin 1 receptor (OX1R; HCRTR1): Homogeneous Time Resolved Fluorescence (HTRF)-based cell-based dose response assay for antagonists of the orexin 2 receptor (OX2R; HCRTR2), run by assay provider.; format: functional
# [20] = target: T5, Orexin/Hypocretin receptor type 1 (Homo sapiens, UniProt O43613); assay: (§2) Fluorescence-based cell-based high throughput dose response assay for antagonists of the orexin 1 receptor (OX1R; HCRTR1). [Related pubchem assays (depositor defined):AID434989, AID435008, AID463079, AID485270, AID492963, AID492964, AID492965, AID493232, AID504717, AID504718]; format: functional
# [21] = target: T5, Orexin/Hypocretin receptor type 1; assay: as §2, with “Homogeneous Time Resolved Fluorescence (HTRF)-based” for “Fluorescence-based”; format: functional
# [22] = as §1, with “Fluorescence-based” for “Homogeneous time resolved fluorescence (HTRF)-based”, “cell-based high throughput” for “cell-based”, “CHO” for “CHO-K1”; format: functional
# [23] = Vero cell cytotoxicity, cytotoxicity control for M. tuberculosis inhibitor project, purified and synthesized samples, set 3 (AID 504684); format: functional
# [24] = A Cell Based Secondary Assay to Explore Cytotoxicity in HepG2 Cells of Compounds that Modulate Mycobacterium tuberculosis in Media Containing Glycerol versus Media without Glycerol (2).; format: functional
# [25] = Vero cell cytotoxicity, dose response, cytotoxicity control for M. tuberculosis growth inhibitor project, Vero cells, purified and synthesized compounds, set 4 (AID 504854); format: functional; conditions: Mycobacterium tuberculosis
# [26] = THP-1 cell cytotoxicity, cytotoxicity control, set 4 (AID 504911); format: functional; conditions: Mycobacterium tuberculosis
# [27] = THP-1 cell cytotoxicity, dose response, cytotoxicity control, set 3 (AID 504852); format: functional; conditions: Mycobacterium tuberculosis
# [28] = HEK-293T viability loss, compound-treated – cell-based, uHTS hits, cytotoxicity control for B/T-cell NF-kB inhibitor project, dose response (AID 489019); format: functional;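 also: IC50 reflects cytotoxicity as loss of cell viability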
# Jurkat [29] = assay: blockers of NF-kB activation in T cells – Jurkat, luciferase reporter, luminescence, B- and T-cell, dose response (AID 489004); format: functional, cell-based; conditions: Homo sapiens;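 also: NF-kB luciferase reporter Jurkat cells stimulated with PMA plus ionomycin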
# [30] = target: Dual specificity protein phosphatase 3 (Homo sapiens, UniProt P51452); assay: SAR VHR1 Fluorescent Assay for In Vitro dose response studies Set 3. [Related pubchem assays (depositor defined):AID1654, AID1661, AID1878]; format: functional
# Escherichia coli = assay: microbe, parasite or virus in culture
# HEK293 [31] = assay: HEK293T cell viability loss, resazurin readout – resazurin fluorescence, cytotoxicity control for NF-kB activator project, SAR follow-up (AID 493251); format: functional, cell-based; conditions: Homo sapiens
# Jurkat [32] = assay: SAR Analysis of small molecule inhibitors of […] specific antigen receptor-induced NF-kB activation in a Jurkat cell line using a luminescence assay - Set 3. [Related pubchem assays (depositor defined):AID435022, AID435025, AID465]; format: functional, cell-based; conditions: Homo sapiens
# HEK293 [33] = assay: SAR Analysis of small molecule inhibitors of B-cell specific antigen receptor-induced NF-kB activation in a HEK-293T cell line using a luminescence assay - Set 2. [Related pubchem assays (depositor defined):AID435022, AID435025, AID489021]; format: functional, cell-based; conditions: Homo sapiens
# [34] = target: Acyl-homoserine lactone acylase PvdQ (Pseudomonas aeruginosa (strain LESB58), UniProt Q9I194); assay: PvdQ acylase enzyme activity blockers – biochemical, fluorescence, plate reader and imaging, cherry-picks, dose response (AID 493231)
# Melanocortin receptor 4 = Melanocortin receptor 4 (Homo sapiens, UniProt P32245); format: functional, cell-based;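 also: Cell-based assay with luminescence read-out, confirmatory dose-response testing for agonist activity of biased ligands at MC4R; human U2OS cells with tagged receptor and beta-arrestin; potency of agonists that increase receptor coupling to beta-arrestin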
# HeLa = assay: toxicity to human HeLa cells – cell-based, 48 h, plate reader, cherry-picks, cytotoxicity control, dose response (AID 504942); format: functional
structure (smiles),measurement,setting,value
O=C1NC(=O)/C(=C/c2ccccc2Oc2ccc(Cl)cc2)S1,EC50,[1],7.87 µM (active)
same,EC50,Streptococcus,7.13 µM (active)
same,EC50,Streptokinase A,> 50 µM (not active)
same,IC50,Phospholipase A2,13.9 µM (active)
same,EC50,[2],> 160 µM (inactive)
same,EC50,[3],5.01 µM (active)
same,IC50,Cysteine protease ATG4B,9.09 µM (active)
Cc1ccc(O)c2c1C1C=CCC1C(C(=O)O)N2 (stereo not given),IC50,[4],2.63 µM (active)
same,IC50,[5],86.4 µM (active)
same,IC50,[6],> 100 µM (inactive)
same,IC50,[7],> 100 µM (not active)
O=C1Nc2ccccc2Nc2cc(-c3ccncc3F)ccc21,Ki,[8],0.00398 µM (active)
same,Ki,[9],> 10 µM (inactive)
same,Ki,[10],0.794 µM (active)
same,Ki,[11],1.58 µM (active)
same,Ki,[12],0.631 µM (active)
same,Ki,[13],1 µM (active)
same,Ki,[14],0.0251 µM (active)
same,Ki,[15],0.158 µM (active)
CCCCOc1nc2nc(-c3ccco3)n(Cc3ccco3)c(N)c-2c1C#N,AC50,Keap1/Nrf2,> 52 µM (inactive)
C/C=C(\C)C(=O)NCCN1C2=NC[C@H](Cc3ccc(O)cc3)N2C[C@H]1Cc1ccc(O)cc1,AC50,[16],15.4 µM (active)
O=C(NCc1cccc(F)c1)c1cccc2c1C(=O)c1ccc(N3CCC(Cc4ccccc4)CC3)cc1S2(=O)=O,AC50,[17],5.93 µM (active)
same,IC50,Beta Lactamase,3.21 µM (active)
same,IC50,CHO,> 49.8 µM (inactive)
Cc1ccc(/C=C2/Sc3ccccc3N(CC(=O)NCC3CCCO3)C2=O)cc1 (stereo not given),IC50,CHO-K1,> 66.2 µM (inactive)
same,IC50,Orexin receptor type 2 [18],29.8 µM (inactive)
same,IC50,Orexin receptor type 2 [19],> 50 µM (inactive)
same,IC50,[20],5.59 µM (active)
same,IC50,[21],1.77 µM (active)
same,IC50,[22],> 49.8 µM (inactive)
CC1CCN(C(=O)C2CCN(c3nnc(-n4cccc4)s3)CC2)CC1,CC50,[23],> 100 µM (active)
same,CC50,[24],> 50 µM (active)
same,CC50,[25],> 100 µM (active)
same,CC50,[26],> 100 µM (active)
same,CC50,[27],> 100 µM (active)
CC(=O)OC(C)(C)/C=C/C(=O)[C@](C)(O)C1[C@H](O)C[C@@]2(C)C3CC=C4C(C[C@H](O)C(=O)C4(C)C)[C@]3(C)C(=O)C[C@]12C (stereo not given in full),IC50,[28],> 80 µM (inactive)
same,IC50,Jurkat [29],3.03 µM (active)
COc1ccc(-c2nnc(Nc3nc4ccc(SC)cc4s3)o2)cc1,IC50,[30],15.4 µM (active)
Cc1c(Cl)cccc1NC(=O)C1NC(=O)CC1c1ccccc1 (stereo not given),AC50,Escherichia coli,27.6 µM (active)
CNC(=O)CCc1nc(-c2ccc(C)cc2)no1,IC50,HEK293 [31],> 80 µM (inactive)
same,IC50,Jurkat [32],> 80 µM (inactive)
same,IC50,HEK293 [33],> 80 µM (inactive)
Cc1ccc(O)c(C(=O)/C=C/c2ccc3c(c2)OCCO3)c1,AC50,[34],1.14 µM (active)
same,EC50,Melanocortin receptor 4,> 89.2 µM (inactive)
same,AC50,HeLa,73.2 µM (active)
